logP data for 21 compounds are collected here from the SangsterLogP compilation.

In general, logP refers to the decadic logarithm of the partition coefficient of the neutral form, usually between octanol and water. A lower logP goes with a more hydrophilic compound.

The structures appear in SMILES notation.

For `CNc1nc(C)nc(C(Cl)(Cl)Cl)n1`, the logP was 2.39.
As for `CN(C)c1nc(C(Cl)(Cl)Cl)nc(C(Cl)(Cl)Cl)n1`, the figure is 4.94; as for `Cc1nc(Nc2ccccc2)nc(C(Cl)(Cl)Cl)n1`, 3.41.
The figure for `Cc1nc(N(C)C)nc(C(Cl)(Cl)Cl)n1` is 3.78.
As for `ClC(Cl)(Cl)c1nc(NCc2ccccc2)nc(C(Cl)(Cl)Cl)n1`, the figure is 4.93; as for `ClC(Cl)(Cl)c1nc(C(Cl)(Cl)Cl)nc(C(Cl)(Cl)Cl)n1`, 3.75; as for `COc1nc(N)nc(C(Cl)(Cl)Cl)n1`, 2.39.
For `CCCNc1nc(C(Cl)(Cl)Cl)nc(C(Cl)(Cl)Cl)n1`, the logP turned out to be 4.09.
The figure for `Cc1nc(NCc2ccccc2)nc(C(Cl)(Cl)Cl)n1` is 3.86; for `CSc1nc(N)nc(C(Cl)(Cl)Cl)n1` it is 3.12; for `CCCNc1nc(C)nc(C(Cl)(Cl)Cl)n1` it is 3.29.
The figure for `O=C1C2=C(CCCC2)C(=O)N1c1ccc(Cl)cc1` is 3.26; for `Cc1nc(C(Cl)(Cl)Cl)nc(C(Cl)(Cl)Cl)n1` it is 4.1; for `ClC(Cl)(Cl)c1nc(Nc2ccccc2)nc(C(Cl)(Cl)Cl)n1` it is 4.39.
On to `Nc1nc(C(Cl)(Cl)Cl)nc(C(Cl)(Cl)Cl)n1`, for which the log partition coefficient (logP) is 2.48.
The figure for `Cc1nc(N)nc(C(Cl)(Cl)Cl)n1` is 1.77; for `O=C1OC(=Nc2ccc(Cl)cc2)C2=C1CCCC2` it is 3.81.
For the compound `Nc1nc(N)nc(C(Cl)(Cl)Cl)n1`, the logP was 1.24.
As for `COc1nc(C(Cl)(Cl)Cl)nc(C(Cl)(Cl)Cl)n1`, the figure is 3.64; as for `CSc1nc(C(Cl)(Cl)Cl)nc(C(Cl)(Cl)Cl)n1`, 4.42; as for `CNc1nc(C(Cl)(Cl)Cl)nc(C(Cl)(Cl)Cl)n1`, 3.23.
